How the values were obtained:
[1] = test system: CGRP-induced increase in laser Doppler facial blood flow; experiment: Non-terminal laser Doppler facial blood flow model in non-human primate; format: in vivo, common marmoset (Callithrix jacchus); details: iv, CGRP 10 μg/kg
Text: Overview. […] Non-human primates (e.g., marmosets) are the only animals known to have human-like CGRP receptor pharmacology conferred by the presence of the specific amino acid residue (Trp74) in their RAMP1 sequence which is responsible for the phenotype of the human receptor (Mallee et al. J Biol Chem 2002 277:14294). […] Peptide and small-molecule CGRP-receptor antagonists were used to validate the non-human primate model.
Animals. Adult male and female common marmosets (Callithrix jacchus) purchased from Harlan and weighing 350-550 g served as subjects. Other mammals endogenously expressing RAMP1 having Trp 74 or transgenic mammals with humanized RAMP1 having Trp 74 can also be employed in A compound described herein.
Anesthesia & Surgical Preparation. Animals are anesthetized by isoflurane inhalation in an induction chamber (4-5% rapid induction, maintained with 1-2.5%; Solomon et al., 1999). Anesthesia is maintained by delivering a constant supply of air:oxygen (50:50) and isoflurane via face mask, or by intubation and ventilation (with blood gas monitoring). Body temperature is maintained at 38±0.5° C. by placement on an automated temperature controlled surface with rectal probe. A small area of fur (approx. 1.5 cm square) is removed from one or both sides of the face by application of a depilatory cream and/or shaving. Surgical areas are clipped and prepared with betadine. An i.v. line is placed in any accessible vein for the administration of test compounds and CGRP-receptor agonist and, if needed, withdrawal of blood samples (max 2.5 ml, 10%) for blood gas monitoring and content analysis. A solution of 5% dextrose is administered i.v. in order to maintain blood sugar levels. Anesthesia depth is monitored by measuring blood pressure and heart rate using a non-invasive arm cuff method and a pulse oximeter, respectively. Guanethidine 5-10 mg/kg i.v., supplemented with 5 mg/kg i.v. as needed, may be given to stabilize the peak flux in facial blood flow seen with repeated stimulation-induced changes in blood flow (Escott et al., 1999; incorporated by reference herein). Microvascular blood flow is monitored by attaching a self adhesive laser Doppler flow probe to the facial skin.
Compound Administration Test compounds may be administered i.v. (0.01-5 ml/kg), i.m. (0.01-0.5 ml/kg), s.c. (0.01-5 ml/kg) or p.o. (0.1-10 ml/kg) (Diehl et al., 2001; incorporated by reference herein). CGRP-receptor agonists may be delivered i.v. (0.01-5 ml/kg), i.d. (10-100 μl/site) or s.c. (10-100 μl/site).

[2] = test system: human cerebral vessels (CGRP-induced dilation); experiment: Ex Vivo Human Cerebral Artery Assay, reversal of CGRP-induced relaxation; details: reversal of 1 nM hCGRP-induced relaxation, vessels pre-contracted with 10 mM KCl
Method in brief: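 Autopsy human cerebral artery rings (4-5 mm) in Krebs buffer, 37 °C, pH 7.4, carbogen; primed with 100 mM KCl, pre-contracted with 10 mM KCl and fully dilated with 1 nM hCGRP. Antagonists added cumulatively in half-log steps; tension recorded as % reversal of CGRP relaxation, EC50 by four-parameter logistic fit per vessel.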

[3] = target: T1, human CGRP receptor (SK-N-MC cells) (Homo sapiens, UniProt O60894+Q16602); experiment: Schild analysis of CGRP stimulated cAMP production; format: cell-based; details: for slope: Schild plot slope
T1 construct: SK-N-MC cells that endogenously express the human CGRP receptor; endogenous in cells; host or cells: SK-N-MC cells
Description: Functional Antagonism. Antagonism of the compounds of invention was determined by measuring the formation of cyclic AMP (adenosine 3′5′-cyclic monophosphate) in SK-N-MC cells that endogenously express the human CGRP receptor. CGRP receptor complex is coupled with Gs protein and CGRP binding to this complex leads to the cyclic AMP production via Gs—dependent activation of an adenylate cyclase (Juaneda C et al., TiPS, 2000; 21:432-438; incorporated by reference herein). Consequently, CGRP receptor antagonists inhibit CGRP-induced cyclic AMP formation in SK-N-MC cells (Doods H et al., Br J Pharmacol, 2000; 129(3):420-423); incorporated by reference herein). For cyclic AMP measurements SK-N-MC cells were incubated with 0.3 nM CGRP alone or in the presence of various concentrations of the compounds of invention for 30 min at room temperature. Compounds of invention were pre-incubated with SK-N-MC cells for 15 min before the addition of CGRP to allow receptor occupancy (Edvinsson et al., Eur J Pharmacol, 2001, 415:39-44; incorporated by reference herein). Cyclic AMP was extracted using the lysis reagent and its concentration was determined by radioimmunoassay using RPA559 cAMP SPA Direct Screening Assay Kit (Amersham Pharmacia Biotech). IC50 values were calculated using Excel fit.
Schild Analysis. Schild analysis can be used to characterize the nature of antagonism of the compounds of invention. The dose response of CGRP stimulated cAMP production was generated either with CGRP alone, or in the presence of various concentrations of compounds of invention. The antagonist dose is plotted as X against the dose ratio (defined as IC50 of agonist with the presence of the compounds divided by the IC50 of the agonist alone) minus 1 as Y. Linear regression was then performed with both X and Y axis log-transformed. […] Kb is the dissociation constant of the antagonist.

T1 sequence (Q16602 23-461): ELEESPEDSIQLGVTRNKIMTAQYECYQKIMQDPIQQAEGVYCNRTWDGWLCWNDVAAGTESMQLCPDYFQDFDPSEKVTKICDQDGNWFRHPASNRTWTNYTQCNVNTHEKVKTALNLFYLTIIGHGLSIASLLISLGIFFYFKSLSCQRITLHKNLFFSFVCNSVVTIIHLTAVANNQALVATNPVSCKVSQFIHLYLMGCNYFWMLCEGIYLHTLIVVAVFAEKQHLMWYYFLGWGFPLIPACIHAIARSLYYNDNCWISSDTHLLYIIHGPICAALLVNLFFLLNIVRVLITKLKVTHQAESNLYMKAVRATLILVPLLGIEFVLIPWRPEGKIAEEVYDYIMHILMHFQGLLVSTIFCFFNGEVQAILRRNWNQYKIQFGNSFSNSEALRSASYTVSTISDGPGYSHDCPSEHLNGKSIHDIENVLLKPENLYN
T1 sequence (O60894 27-148): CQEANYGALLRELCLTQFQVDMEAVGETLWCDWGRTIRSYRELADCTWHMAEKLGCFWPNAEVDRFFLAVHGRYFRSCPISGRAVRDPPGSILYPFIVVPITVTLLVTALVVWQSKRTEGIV

## Cc1cc(CC(NC(=O)N2CCC(N3Cc4ccccc4NC3=O)CC2)C(=O)N2CCC(N3CCCCC3)CC2)cc2cn[nH]c12 (racemic) [Example 16, (±)-4-(2-Oxo-1,4-dihydro-2H-quinazolin-3-yl)-piperidine-1-carboxylic acid[2-[1,4′]bipiperidinyl-1′-yl-1-(7-methyl-1H-indazol-5-ylmethyl)-2-oxo-ethyl]-amide]
[1]; 0.03 mg/kg
  % Inhibition of CGRP-induced increase in laser Doppler facial blood flow: Y (50%<Y≦75%)
[2]
  EC50: < 10 nM
[3]
  slope: 1.3

## Cc1cc(CC(CC(=O)N2CCC(N3Cc4ccccc4NC3=O)CC2)C(=O)N2CCC(N3CCCCC3)CC2)cc2cn[nH]c12 (racemic) [Example 69, (±)-1-[1,4′]Bipiperidinyl-1′-yl-2-(7-methyl-1H-indazol-5-ylmethyl)-4-[4-(2-oxo-1,4-dihydro-2H-quinazolin-3-yl)-piperidin-1-yl]-butane-1,4-dione]
[1]; 0.03 mg/kg
  % Inhibition of CGRP-induced increase in laser Doppler facial blood flow: Y (50%<Y≦75%)
[1]; 0.1 mg/kg
  % Inhibition of CGRP-induced increase in laser Doppler facial blood flow: Z (Z>75%)
[2]
  EC50: < 10 nM
[3]; Schild analysis, dissociation constant of the antagonist, read-out: Kb
  Kb: 0.016 nM
[3]
  slope: 1
